Experimental data from ChEMBL document CHEMBL1201862, “PubChem BioAssay data set” (2004).
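Cells were grown in 96-well plates and exposed to each compound for 48 hours at five concentrations; endpoints were interpolated linearly between bracketing concentrations, or set to the highest concentration if not reached. The concentration for 50% growth inhibition is given as GI50.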 Calls of active or inactive are those of the source. Rule as the data show it: active = GI50 up to about 1.1 µM and inactive = higher.

Legend:
Experiment in all cases: NCI anticancer screen, dose series, 48 h
OVCAR-3 = tested on: OVCAR-3
M14 = tested on: M14
DU-145 = tested on: DU-145
MDA-MB-435 = tested on: MDA-MB-435
SF-268 = tested on: SF-268
SK-MEL-28 = tested on: SK-MEL-28
HCC 2998 = tested on: HCC 2998
UACC-257 = tested on: UACC-257
SF-295 = tested on: SF-295
KM12 = tested on: KM12
K562 = tested on: K562
PC-3 = tested on: PC-3
NCI-H460 = tested on: NCI-H460
HT-29 = tested on: HT-29
NCI/ADR-RES = tested on: NCI/ADR-RES
A498 = tested on: A498
LOX IMVI = tested on: LOX IMVI
786-0 = tested on: 786-0
SK-MEL-2 = tested on: SK-MEL-2
HCT-116 = tested on: HCT-116

Measured: GI50

NC(CC(O)(c1ccccc1)c1ccccc1)c1ccccc1S (stereo not given)
inactive: OVCAR-3 16 µM | M14 15.4 µM | DU-145 > 10 µM | MDA-MB-435 14.8 µM | SF-268 9.71 µM | SK-MEL-28 17.5 µM | HCC 2998 17.3 µM | UACC-257 18.9 µM | SF-295 14.9 µM | KM12 12.5 µM | K562 16.4 µM | PC-3 11.4 µM | NCI-H460 18 µM | HT-29 14.5 µM | NCI/ADR-RES 16.6 µM | A498 17.6 µM | LOX IMVI 13.8 µM | 786-0 15.9 µM | SK-MEL-2 15.9 µM | HCT-116 13.2 µM

CCCCC(=O)Oc1ccc2c(C)cc(=O)oc2c1
inactive: OVCAR-3 > 100 µM | M14 > 100 µM | DU-145 > 100 µM | MDA-MB-435 > 100 µM | SF-268 > 100 µM | SK-MEL-28 > 100 µM | HCC 2998 88.9 µM | UACC-257 > 100 µM | SF-295 > 100 µM | KM12 > 100 µM | K562 > 100 µM | PC-3 > 100 µM | NCI-H460 > 100 µM | HT-29 > 100 µM | NCI/ADR-RES > 100 µM | A498 > 100 µM | LOX IMVI > 100 µM | 786-0 > 100 µM | SK-MEL-2 > 100 µM | HCT-116 > 100 µM

O=C(N/N=C\c1cccc2c([N+](=O)[O-])cccc12)Nc1ccccc1
inactive: OVCAR-3 14.2 µM | M14 12.9 µM | DU-145 26.9 µM | MDA-MB-435 9.29 µM | SF-268 21.6 µM | SK-MEL-28 16.4 µM | HCC 2998 15.1 µM | UACC-257 19.5 µM | SF-295 13.9 µM | KM12 14.9 µM | K562 5.85 µM | PC-3 14.8 µM | NCI-H460 14.2 µM | HT-29 14.8 µM | NCI/ADR-RES 12.4 µM | A498 16.5 µM | LOX IMVI 7.74 µM | 786-0 16.6 µM | SK-MEL-2 2.27 µM | HCT-116 5.37 µM
